The target of the experiment is Protein farnesyltransferase (Homo sapiens, UniProt P49354+P49356). The experiment in a line: Inhibition of Farnesyltransferase. In kind it is protein-complex assay.

`CC(C)=CCC/C(C)=C/CC/C(C)=C/COP(=O)(O)CP(=O)(O)O` [FARNESYL METHYLENEDIPHOSPHONATE]: 160 nM corresponded to half-maximal inhibition (IC50).
